Reference: paper PMC5116089, “Sulfheme formation during homocysteine S-oxygenation by catalase in cancers and neurodegenerative diseases” (Nature Communications, 2016)

What was measured:
Bovine liver catalase [1] = biological target: T1, Bovine liver catalase (Bos taurus, UniProt P00432); test: Comparative kinetic studies by ultraviolet-visible spectroscopy (compound II and Fe(II) sulfonium formation); format: biochemical; details: CAT + 2 mM HCys, 1 mM DTPA, pH 7.4, with the additive named (dimedone 4 mM, BCN 0.1 mM, SOD 40 U)
T1 construct: Bovine liver catalase was also purchased from Sigma-Aldrich; purchased Sigma-Aldrich; host or cells: bovine liver
T1 sequence (P00432 2-527 limits assumed): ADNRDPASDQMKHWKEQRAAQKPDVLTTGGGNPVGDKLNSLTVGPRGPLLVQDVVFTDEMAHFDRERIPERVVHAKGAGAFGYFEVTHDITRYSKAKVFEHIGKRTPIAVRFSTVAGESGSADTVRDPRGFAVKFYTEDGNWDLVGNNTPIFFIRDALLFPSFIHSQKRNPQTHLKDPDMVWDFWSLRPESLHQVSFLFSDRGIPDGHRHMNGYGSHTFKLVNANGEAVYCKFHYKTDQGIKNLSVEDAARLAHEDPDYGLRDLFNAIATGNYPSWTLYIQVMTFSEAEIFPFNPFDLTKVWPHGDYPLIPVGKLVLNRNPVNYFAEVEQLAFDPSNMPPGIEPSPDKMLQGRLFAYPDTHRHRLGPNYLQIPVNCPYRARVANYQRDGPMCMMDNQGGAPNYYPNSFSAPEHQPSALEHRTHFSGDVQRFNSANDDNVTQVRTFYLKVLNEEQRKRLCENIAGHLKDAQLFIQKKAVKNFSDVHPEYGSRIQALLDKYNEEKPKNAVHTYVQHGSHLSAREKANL
Procedure: Ultraviolet–visible spectra were recorded on a Cary 300 Scan or an Uvikon 941 spectrophotometer equipped with a temperature equilibrating water bath (±1 °C). Spectral changes over time were recorded when CAT was incubated with L-HCys (0.2 or 2 mM), L-Cys (0.2, 2 or 9 mM) or GSH (1 or 30 mM) at 25 °C in a 1 ml quartz cuvette containing a solution of CAT (2.7–5.9 μM) in 50 mM KPi, pH 7.4±1 mM DTPA. Due to half-site reactivity of biological thiols with CAT, the data were recorded versus a blank containing half the concentrations of CAT used in the experiments, that is, a solution of 1.35–2.95 μM CAT in 50 mM KPi at pH 7.4±1 mM DTPA. Reactions were initiated by addition of the thiol-containing compounds. Comparative kinetic studies were performed by incubating CAT ([…] in the experiment, 1.35–1.5 μM in the blank) with 2 mM L-HCys in 50 mM KPi, pH 7.4, 1 mM DTPA with or without […], 5,5-dimethyl-1,3-cyclohexanedione (dimedone, 4 mM), BCN (0.1 mM) or SOD, 40 U). All the experiments were performed at least in duplicate.

Bovine liver catalase [2] = biological target: T1, Bovine liver catalase; test: Time course of catalase inactivation by HCys (activity test); format: biochemical; details: CAT + 2 mM HCys, 1 mM DTPA, pH 7.4, with the additive named (DMPO 100 mM, dimedone 4 mM, SOD 40 U); n=2±s.d.
Procedure: CAT activity was measured on an Uvikon 941 spectrophotometer equipped with a temperature controlled water bath (±1 °C) by following the disappearance of H2O2 at 240 nm over 30–120 s at 25 °C. Catalase activity was calculated based on the rate of decomposition of hydrogen peroxide, which is proportional to the reduction of the absorbance at 240 nm. Experiments were carried out in a 3 ml quartz cuvette containing 11.7 mM H2O2 in 50 mM KPi, pH 7.4±1 mM DTPA and the reaction was initiated by adding 0.3–0.6 pmoles of CAT. The effect of biological thiols on the activity of CAT under physiological conditions was determined from a solution of CAT (30–60 nM) preincubated at 25 °C for at least 120 min as a function thiol concentration (0–40 mM for HCys and Cys, 0–100 mM for GSH) in 50 mM KPi, pH 7.4, 1 mM DTPA. Control experiments (biological thiols alone) were also performed in parallel. In each case, 10 μl of the reaction mixture (biological thiols±CAT) was added to the cuvette containing the H2O2 solution to initiate the reaction. Similarly, the effect of biological thiols on the activity of CAT under pathological conditions was determined from a solution of CAT (30–60 nM) containing a 2.124±0.386 molar excess of iron that was preincubated with various concentrations of thiols (0–1 mM) for at least 120 min at 25 °C in 50 mM KP at pH 7.4. The relative half inhibitory concentration (IC50) values were obtained by plotting the relative activity of CAT (A, in per cent) as a function of the concentration of thiol-compounds (RSH) and by fitting the data with the following four parameter logistic equation: A=Amin+(Amax−Amin)/(1+([RSH]/IC50)^n), where Amax is the maximal activity of CAT (constrained at 100%), Amin is the minimum activity achieved at saturating concentration of RSH and n is the Hillslope that characterizes the slope of the curve at its midpoint. The inactivation rate (kinact, min^−1) was extracted from the time course of the inactivation of CAT bioactivity using a fixed concentration of HCys. Accordingly, a solution of CAT (3.5–5 μM) was incubated with 2 mM L-HCys in 50 mM KPi, pH 7.4, 1 mM DTPA. Aliquots (10 μl) were taken at intervals (0–480 min), diluted 1:50 in 50 mM KPi, pH 7.4, 1 mM DTPA and assayed for CAT activity as described above. […] The effect of NaSH on the consumption of H2O2 in cell lysates was determined from a solution of cell lysates (0.5–3 mg ml^−1) incubated on ice with various concentrations of NaSH (0–200 μM). […]

Structure (SMILES): NC(CCS)C(=O)O (centres unmarked) [HCys, homocysteine]
- Ultraviolet–visible spectroscopy kobs(6) (CAT–Fe(IV)=O formation) (Bovine liver catalase [1]): 0.026 ± 0.003 min⁻¹
- kinact (Bovine liver catalase [2]): 0.000483 s⁻¹
